target: glucan synthase (GS) prepared from Candida albicans MY1055 (Candida albicans, UniProt O13428); experiment: Glucan synthase inhibition (polymerization assay, 96-well); assay type: biochemical; conditions: GS from C. albicans MY1055; 60 min incubation at 22° C.; read-out: Candida Albicans GS IC50 (converted)
Method in brief: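 Partially purified glucan synthase from C. albicans MY1055 membranes incorporated 0.5 mM ³H-UDPG with 25 μM GTP-γ-S, HEPES pH 7.5, over 60 min at 22 °C. TCA-precipitated glucan was counted by scintillation. IC50 (ng/mL) came from sigmoidal fits of duplicate 3-fold dilution series.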

Chain of glucan synthase (GS) prepared from Candida albicans MY1055 (O13428 1-1897): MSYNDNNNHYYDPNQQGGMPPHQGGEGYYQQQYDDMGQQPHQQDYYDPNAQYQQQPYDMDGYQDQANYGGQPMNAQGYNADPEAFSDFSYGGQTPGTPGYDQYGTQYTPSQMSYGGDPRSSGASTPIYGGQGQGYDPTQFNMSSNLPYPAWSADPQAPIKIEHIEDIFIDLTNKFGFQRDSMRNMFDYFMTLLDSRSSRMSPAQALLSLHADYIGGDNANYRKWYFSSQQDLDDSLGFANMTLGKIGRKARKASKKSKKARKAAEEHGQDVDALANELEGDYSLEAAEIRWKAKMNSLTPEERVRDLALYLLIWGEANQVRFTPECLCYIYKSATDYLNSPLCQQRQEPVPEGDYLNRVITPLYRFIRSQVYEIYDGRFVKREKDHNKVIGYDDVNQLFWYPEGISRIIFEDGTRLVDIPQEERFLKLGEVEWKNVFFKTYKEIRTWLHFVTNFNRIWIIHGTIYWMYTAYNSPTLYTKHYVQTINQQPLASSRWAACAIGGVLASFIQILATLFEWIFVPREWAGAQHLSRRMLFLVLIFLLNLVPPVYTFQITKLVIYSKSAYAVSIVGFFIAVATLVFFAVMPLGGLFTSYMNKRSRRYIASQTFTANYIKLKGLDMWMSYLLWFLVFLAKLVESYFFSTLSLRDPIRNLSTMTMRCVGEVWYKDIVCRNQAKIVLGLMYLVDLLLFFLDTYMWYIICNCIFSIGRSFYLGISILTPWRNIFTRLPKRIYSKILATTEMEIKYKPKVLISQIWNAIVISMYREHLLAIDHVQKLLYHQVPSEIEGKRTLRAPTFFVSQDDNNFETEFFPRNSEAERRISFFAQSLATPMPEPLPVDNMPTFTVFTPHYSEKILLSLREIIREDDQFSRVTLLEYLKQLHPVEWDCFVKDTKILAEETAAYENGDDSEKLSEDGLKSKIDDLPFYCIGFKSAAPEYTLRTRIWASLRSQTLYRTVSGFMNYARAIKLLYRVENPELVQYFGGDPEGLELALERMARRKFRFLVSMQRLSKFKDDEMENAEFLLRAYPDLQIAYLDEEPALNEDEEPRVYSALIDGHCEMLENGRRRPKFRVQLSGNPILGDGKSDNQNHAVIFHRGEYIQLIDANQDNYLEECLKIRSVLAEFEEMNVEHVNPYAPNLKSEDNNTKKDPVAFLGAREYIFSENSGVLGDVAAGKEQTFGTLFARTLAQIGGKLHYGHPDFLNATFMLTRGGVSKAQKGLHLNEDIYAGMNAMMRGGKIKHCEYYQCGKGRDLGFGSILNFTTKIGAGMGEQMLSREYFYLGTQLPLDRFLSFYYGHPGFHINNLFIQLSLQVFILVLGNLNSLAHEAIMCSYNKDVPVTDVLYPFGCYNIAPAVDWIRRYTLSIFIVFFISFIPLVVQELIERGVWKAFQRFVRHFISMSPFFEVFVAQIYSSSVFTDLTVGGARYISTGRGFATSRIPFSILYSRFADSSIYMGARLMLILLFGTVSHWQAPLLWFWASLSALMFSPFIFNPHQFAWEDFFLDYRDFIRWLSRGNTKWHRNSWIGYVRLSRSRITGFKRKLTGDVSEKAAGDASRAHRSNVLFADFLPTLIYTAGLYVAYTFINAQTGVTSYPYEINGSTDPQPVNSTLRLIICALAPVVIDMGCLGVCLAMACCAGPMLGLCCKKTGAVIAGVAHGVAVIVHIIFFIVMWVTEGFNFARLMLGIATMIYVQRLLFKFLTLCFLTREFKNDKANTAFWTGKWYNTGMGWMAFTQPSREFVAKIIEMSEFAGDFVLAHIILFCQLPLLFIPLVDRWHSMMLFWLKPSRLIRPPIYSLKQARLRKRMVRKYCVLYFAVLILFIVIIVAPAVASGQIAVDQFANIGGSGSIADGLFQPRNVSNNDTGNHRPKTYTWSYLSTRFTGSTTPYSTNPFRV

| SMILES | IC50 [nM] |
| --- | --- |
| CCCc1ncnn1[C@@H]1C[C@@]23COC[C@](C)([C@@H]2CC[C@H]2C3=CC[C@@]3(C)[C@H](C(=O)O)[C@@](C)([C@H](C)C(C)C)CC[C@]23C)[C@H]1OC[C@](C)(N)C(C)C [Example 169, (1S,4aR,6aS,7R,8R,10aR,10bR,12aR,14R,15R)-15-[[(2R)-2-amino-2,3-dimethylbutyl]oxy]-8-[(1R)-1,2-dimethylpropyl]-14-(5-propyl-1H-1,2,4-triazol-1-yl)-1,6,6a,7,8,9,10,10a,10b,11,12,12a-dodecahydro-1,6a,8,10a-tetramethyl-4H-1,4a-propano-2H-phenanthro[1,2-c]pyran-7-carboxylic acid] | 4.41 |
| CC(C)[C@@H](C)[C@@]1(C)CC[C@]2(C)[C@H]3CC[C@@H]4[C@@]5(COC[C@@]4(C)[C@@H](OC[C@](C)(N)C(C)(C)C)[C@H](n4ncnc4-c4ccnc(N)c4)C5)C3=CC[C@@]2(C)[C@@H]1C(=O)O [Example 214, (1S,4aR,6aS,7R,8R,10aR,10bR,12aR,14R,15R)-14-[5-(2-amino-4-pyridinyl)-1H-1,2,4-triazol-1-yl]-15-[[(2R)-2-amino-2,3,3-trimethylbutyl]oxy]-8-[(1R)-1,2-dimethylpropyl]-1,6,6a,7,8,9,10,10a,10b,11,12,12a-dodecahydro-1,6a,8,10a-tetramethyl-4H-1,4a-propano-2H-phenanthro[1,2-c]pyran-7-carboxylic acid] | 1.34 |
| CC(C)[C@@H](C)[C@@]1(C)CC[C@]2(C)[C@H]3CC[C@@H]4[C@@]5(COC[C@@]4(C)[C@@H](OC[C@](C)(N)C(C)(C)C)[C@H](n4ncnc4-c4ccc(O)nc4)C5)C3=CC[C@@]2(C)[C@@H]1C(=O)O [Example 218, (1S,4aR,6aS,7R,8R,10aR,10bR,12aR,14R,15R)-15-[[(2R)-2-amino-2,3,3-trimethylbutyl]oxy]-8-[(1R)-1,2-dimethylpropyl]-14-[5-(6-hydroxy-3-pyridinyl)-1H-1,2,4-triazol-1-yl]-1,6,6a,7,8,9,10,10a,10b,11,12,12a-dodecahydro-1,6a,8,10a-tetramethyl-4H-1,4a-propano-2H-phenanthro[1,2-c]pyran-7-carboxylic acid] | 1.07 |
| CC(C)[C@@H](C)[C@@]1(C)CC[C@]2(C)[C@H]3CC[C@@H]4[C@@]5(COC[C@@]4(C)[C@@H](OC[C@](C)(N)C(C)(C)C)[C@H](n4ncnc4-c4ccc(C(N)=O)nc4)C5)C3=CC[C@@]2(C)[C@@H]1C(=O)O [Example 221, (1S,4aR,6aS,7R,8R,10aR,10bR,12aR,14R,15R)-14-[5-[6-(aminocarbonyl)-3-pyridinyl]-1H-1,2,4-triazol-1-yl]-15-[[(2R)-2-amino-2,3,3-trimethylbutyl]oxy]-8-[(1R)-1,2-dimethylpropyl]-1,6,6a,7,8,9,10,10a,10b,11,12,12a-dodecahydro-1,6a,8,10a-tetramethyl-4H-1,4a-propano-2H-phenanthro[1,2-c]pyran-7-carboxylic acid] | 3.88 |
| CC(C)[C@@H](C)[C@@]1(C)CC[C@]2(C)[C@H]3CC[C@@H]4[C@@]5(COC[C@@]4(C)[C@@H](OC[C@](C)(N)C(C)(C)C)[C@H](n4ncnc4-c4cccc(C(N)=O)c4)C5)C3=CC[C@@]2(C)[C@@H]1C(=O)O [Example 228, (1S,4aR,6aS,7R,8R,10aR,10bR,12aR,14R,15R)-14-[5-[3-(aminocarbonyl)phenyl]-1H-1,2,4-triazol-1-yl]-15-[[(2R)-2-amino-2,3,3-trimethylbutyl]oxy]-8-[(1R)-1,2-dimethylpropyl]-1,6,6a,7,8,9,10,10a,10b,11,12,12a-dodecahydro-1,6a,8,10a-tetramethyl-4H-1,4a-propano-2H-phenanthro[1,2-c]pyran-7-carboxylic acid] | 7.77 |
| CC(C)[C@@H](C)[C@@]1(C)CC[C@]2(C)[C@H]3CC[C@@H]4[C@@]5(COC[C@@]4(C)[C@@H](OC[C@](C)(N)C(C)(C)C)[C@H](n4ncnc4-c4ccc(CN(C)C)cc4)C5)C3=CC[C@@]2(C)[C@@H]1C(=O)O [Example 239, (1S,4aR,6aS,7R,8R,10aR,10bR,12aR,14R,15R)-15-[[(2R)-2-amino-2,3,3-trimethylbutyl]oxy]-14-[5-[4-[(dimethylamino)methyl]phenyl]-1H-1,2,4-triazol-1-yl]-8-[(1R)-1,2-dimethylpropyl]-1,6,6a,7,8,9,10,10a,10b,11,12,12a-dodecahydro-1,6a,8,10a-tetramethyl-4H-1,4a-propano-2H-phenanthro[1,2-c]pyran-7-carboxylic acid] | 0.127 |
| CCC(N)(CC)CO[C@H]1[C@H](n2ncnc2-c2ccncc2)C[C@@]23COC[C@]1(C)[C@@H]2CC[C@H]1C3=CC[C@@]2(C)[C@H](C(=O)O)[C@@](C)([C@H](C)C(C)C)CC[C@]12C [Example 241, (1S,4aR,6aS,7R,8R,10aR,10bR,12aR,14R,15R)-15-(2-amino-2-ethylbutoxy)-8-[(1R)-1,2-dimethylpropyl]-14-[5-(4-pyridinyl)-1H-1,2,4-triazol-1-yl]-1,6,6a,7,8,9,10,10a,10b,11,12,12a-dodecahydro-1,6a,8,10a-tetramethyl-4H-1,4a-propano-2H-phenanthro[1,2-c]pyran-7-carboxylic acid] | 1.4 |
| CC(C)[C@@H](C)[C@@]1(C)CC[C@]2(C)[C@H]3CC[C@@H]4[C@@]5(COC[C@@]4(C)[C@@H](OC[C@](C)(N)c4ccccc4)[C@H](n4ncnc4-c4ccncc4)C5)C3=CC[C@@]2(C)[C@@H]1C(=O)O [Example 245, (1S,4aR,6aS,7R,8R,10aR,10bR,12aR,14R,15R)-15-[[(2R)-2-amino-2-phenylpropyl]oxy]-8-[(1R)-1,2-dimethylpropyl]-14-[5-(4-pyridinyl)-1H-1,2,4-triazol-1-yl]-1,6,6a,7,8,9,10,10a,10b,11,12,12a-dodecahydro-1,6a,8,10a-tetramethyl-4H-1,4a-propano-2H-phenanthro[1,2-c]pyran-7-carboxylic acid] | 8 |

Further lines, results first:

| IC50 [nM] | SMILES |
| --- | --- |
| 4.42 | C=C(C)c1ncnn1[C@@H]1C[C@@]23COC[C@](C)([C@@H]2CC[C@H]2C3=CC[C@@]3(C)[C@H](C(=O)O)[C@@](C)([C@H](C)C(C)C)CC[C@]23C)[C@H]1OC[C@](C)(N)C(C)C [Example 168, (1S,4aR,6aS,7R,8R,10aR,10bR,12aR,14R,15R)-15-[[(2R)-2-amino-2,3-dimethylbutyl]oxy]-8-[(1R)-1,2-dimethylpropyl]-14-[5-(1-methylethenyl)-1H-1,2,4-triazol-1-yl]-1,6,6a,7,8,9,10,10a,10b,11,12,12a-dodecahydro-1,6a,8,10a-tetramethyl-4H-1,4a-propano-2H-phenanthro[1,2-c]pyran-7-carboxylic acid] |
| 1.06 | CC(C)[C@@H](C)[C@@]1(C)CC[C@]2(C)[C@H]3CC[C@@H]4[C@@]5(COC[C@@]4(C)[C@@H](OC[C@](C)(N)C(C)(C)C)[C@H](n4ncnc4-c4ccc(CN)cc4)C5)C3=CC[C@@]2(C)[C@@H]1C(=O)O [Example 178, (1S,4aR,6aS,7R,8R,10aR,10bR,12aR,14R,15R)-14-[5-[4-(aminomethyl)phenyl]-1H-1,2,4-triazol-1-yl]-15-[[(2R)-2-amino-2,3,3-trimethylbutyl]oxy]-8-[(1R)-1,2-dimethylpropyl]-1,6,6a,7,8,9,10,10a,10b,11,12,12a-dodecahydro-1,6a,8,10a-tetramethyl-4H-1,4a-propano-2H-phenanthro[1,2-c]pyran-7-carboxylic acid] |
| 4.15 | CC(C)[C@@H](C)[C@@]1(C)CC[C@]2(C)[C@H]3CC[C@@H]4[C@@]5(COC[C@@]4(C)[C@@H](OC[C@](C)(N)C(C)C)[C@H](n4ncnc4-c4cncs4)C5)C3=CC[C@@]2(C)[C@@H]1C(=O)O [Example 193, (1S,4aR,6aS,7R,8R,10aR,10bR,12aR,14R,15R)-15-[[(2R)-2-amino-2,3-dimethylbutyl]oxy]-8-[(1R)-1,2-dimethylpropyl]-14-[5-(5-thiazolyl)-1H-1,2,4-triazol-1-yl]-1,6,6a,7,8,9,10,10a,10b,11,12,12a-dodecahydro-1,6a,8,10a-tetramethyl-4H-1,4a-propano-2H-phenanthro[1,2-c]pyran-7-carboxylic acid] |
| 0.546 | CC(C)[C@@H](C)[C@@]1(C)CC[C@]2(C)[C@H]3CC[C@@H]4[C@@]5(COC[C@@]4(C)[C@@H](OC[C@](C)(N)C(C)C)[C@H](n4ncnc4-c4ccc(O)nc4)C5)C3=CC[C@@]2(C)[C@@H]1C(=O)O [Example 199, (1S,4aR,6aS,7R,8R,10aR,10bR,12aR,14R,15R)-15-[[(2R)-2-amino-2,3-dimethylbutyl]oxy]-8-[(1R)-1,2-dimethylpropyl]-14-[5-(6-hydroxy-3-pyridinyl)-1H-1,2,4-triazol-1-yl]-1,6,6a,7,8,9,10,10a,10b,11,12,12a-dodecahydro-1,6a,8,10a-tetramethyl-4H-1,4a-propano-2H-phenanthro[1,2-c]pyran-7-carboxylic acid] |
| 8.22 | CC(C)[C@@H](C)[C@@]1(C)CC[C@]2(C)[C@H]3CC[C@@H]4[C@@]5(COC[C@@]4(C)[C@@H](OC[C@](C)(N)C(C)C)[C@H](n4ncnc4-c4ccc(N)cc4)C5)C3=CC[C@@]2(C)[C@@H]1C(=O)O [Example 200, (1S,4aR,6aS,7R,8R,10aR,10bR,12aR,14R,15R)-15-[[(2R)-2-amino-2,3-dimethylbutyl]oxy]-14-[5-(4-aminophenyl)-1H-1,2,4-triazol-1-yl]-8-[(1R)-1,2-dimethylpropyl]-1,6,6a,7,8,9,10,10a,10b,11,12,12a-dodecahydro-1,6a,8,10a-tetramethyl-4H-1,4a-propano-2H-phenanthro[1,2-c]pyran-7-carboxylic acid] |
| 6.47 | CC(C)[C@@H](C)[C@@]1(C)CC[C@]2(C)[C@H]3CC[C@@H]4[C@@]5(COC[C@@]4(C)[C@@H](OC[C@](C)(N)C(C)(C)C)[C@H](n4ncnc4-c4ccc(C(=O)O)cc4)C5)C3=CC[C@@]2(C)[C@@H]1C(=O)O [Example 235, (1S,4aR,6aS,7R,8R,10aR,10bR,12aR,14R,15R)-15-[[(2R)-2-amino-2,3,3-trimethylbutyl]oxy]-14-[5-(4-carboxyphenyl)-1H-1,2,4-triazol-1-yl]-8-[(1R)-1,2-dimethylpropyl]-1,6,6a,7,8,9,10,10a,10b,11,12,12a-dodecahydro-1,6a,8,10a-tetramethyl-4H-1,4a-propano-2H-phenanthro[1,2-c]pyran-7-carboxylic acid] |

— patent US8188085B2, “Antifungal agents” (Merck Sharp & Dohme Corp., priority 2008, dated 2012)
